Data: patent US8580965B2, “Substituted sulfonamide compounds” (Gruenenthal GmbH, priority 2006, dated 2013)

Columns and labels:
[1] = target: T1, B1R receptor of the rat (bradykinin 1 receptor) (Rattus norvegicus, UniProt P97583); assay: FLIPR Ca2+ assay (Fluo-4) on CHO K1 cells stably transfected with the B1R gene of the rat; % activation and % inhibition at 10 μM; type: cell-based; conditions: CHO-K1, test substance 10 μM; CHO K1 rB1R cells; Ca2+ inflow after 100 nM Des-Arg9-bradykinin; read-out: B1R antagonism, rat [10 μM] % inhibition
T1 construct: host or cells: CHO K1 cells (rB1R cells)
T1 sequence (P97583 1-337): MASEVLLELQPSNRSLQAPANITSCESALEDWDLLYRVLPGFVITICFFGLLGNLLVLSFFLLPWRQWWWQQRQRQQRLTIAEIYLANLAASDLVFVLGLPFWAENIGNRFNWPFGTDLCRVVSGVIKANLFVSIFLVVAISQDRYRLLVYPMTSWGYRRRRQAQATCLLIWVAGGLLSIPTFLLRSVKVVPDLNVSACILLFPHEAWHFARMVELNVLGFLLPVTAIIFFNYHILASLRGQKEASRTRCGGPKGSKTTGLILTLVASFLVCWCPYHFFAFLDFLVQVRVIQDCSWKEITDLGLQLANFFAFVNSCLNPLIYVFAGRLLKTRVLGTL
Outline: (§1)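 Fluo-4 Ca2+ flux on FLIPR in stable hB1R or rB1R CHO K1 lines, two additions. Agonism: 10 µM compound versus 0.5 nM Lys-Des-Arg9-BK (human) or 100 nM Des-Arg9-BK (rat); antagonism: same agonists applied 10 min later, suppression expressed against maximum achievable inhibition.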

[2] = target: T2, human B1R receptor (bradykinin 1 receptor) (Homo sapiens, UniProt P46663); assay: FLIPR Ca2+ assay (Fluo-4) on CHO K1 cells stably transfected with the human B1R gene; % activation and % inhibition at 10 μM; type: cell-based; conditions: CHO-K1, test substance 10 μM; CHO K1 hB1R cells; Ca2+ inflow after 0.5 nM Lys-Des-Arg9-bradykinin; read-out: B1R antagonism, human [10 μM] % inhibition
T2 construct: host or cells: CHO K1 cells (hB1R cells)
T2 sequence (P46663 1-353): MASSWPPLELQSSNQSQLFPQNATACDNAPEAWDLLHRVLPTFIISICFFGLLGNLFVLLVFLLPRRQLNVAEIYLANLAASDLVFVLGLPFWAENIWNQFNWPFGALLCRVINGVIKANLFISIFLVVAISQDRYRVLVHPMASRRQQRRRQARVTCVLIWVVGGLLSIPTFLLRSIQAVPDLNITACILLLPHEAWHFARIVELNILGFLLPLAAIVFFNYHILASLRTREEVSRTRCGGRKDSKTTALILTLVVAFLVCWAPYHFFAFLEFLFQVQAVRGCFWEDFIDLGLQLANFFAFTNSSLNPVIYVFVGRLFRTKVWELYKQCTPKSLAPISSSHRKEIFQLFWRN
Outline: as §1

Row | inhibition at 10 µM [1] | inhibition at 10 µM [2] | SMILES
1 | 29.1% | 66% | COc1ccc(S(=O)(=O)N2Cc3ccccc3C[C@H]2COCC(=O)N2CCC(O)(c3cccnc3)CC2)cc1 [Example 134, (S)-1-(4-hydroxy-4-(pyridin-3-yl)piperidin-1-yl)-2-((2-(4-methoxyphenylsulfonyl)-1,2,3,4-tetrahydroisoquinolin-3-yl)methoxy)ethanone]
2 | 100% | 99.8% | O=C(COCC1Cc2ccccc2N1S(=O)(=O)c1ccc(Cl)cc1Cl)N1CCC(O)(c2cccnc2)CC1 (stereo not shown) [Example 135, 2-((1-(2,4-dichlorophenylsulfonyl)indolin-2-yl)methoxy)-1-(4-hydroxy-4-(pyridin-3-yl)piperidin-1-yl)ethanone]
3 | 95.3% | 93.6% | COc1cc(C)c(S(=O)(=O)N(C)CCOCC(=O)N2CCC(O)(c3ccc(Cl)cc3)CC2)c(C)c1 [Example 136, N-(2-(2-(4-(4-chlorophenyl)-4-hydroxypiperidin-1-yl)-2-oxoethoxy)ethyl)-4-methoxy-N,2,6-trimethylphenylsulfonamide]
4 | 99.3% | 101% | COc1cc(C)c(S(=O)(=O)N(C)CCOCC(=O)N2CCC(O)(c3ccccc3)CC2)c(C)c1 [Example 137, N-(2-(2-(4-hydroxy-4-phenylpiperidin-1-yl)-2-oxoethoxy)ethyl)-4-methoxy-N,2,6-trimethylphenylsulfonamide]
5 | 99.6% | 102% | COc1cc(C)c(S(=O)(=O)N2CCCCC2COCC(=O)N2CCC(O)(c3ccccn3)CC2)c(C)c1 (stereo not shown) [Example 138, 1-(4-hydroxy-4-(pyridin-2-yl)piperidin-1-yl)-2-((1-(4-methoxy-2,6-dimethylphenylsulfonyl)piperidin-2-yl)methoxy)ethanone]
6 | 101% | 104% | COc1cc(C)c(S(=O)(=O)N(CCOCC(=O)N2CCC(O)(c3cccnc3)CC2)C2CC2)c(C)c1 [Example 139, N-cyclopropyl-N-(2-(2-(4-hydroxy-4-(pyridin-3-yl)piperidin-1-yl)-2-oxoethoxy)ethyl)-4-methoxy-2,6-dimethylphenylsulfonamide]
7 | 101% | 104% | COc1cc(C)c(S(=O)(=O)N(C)CCOCC(=O)N2CCC(O)(CCc3cccnc3)CC2)c(C)c1 [Example 140, N-(2-(2-(4-hydroxy-4-(2-(pyridin-3-yl)ethyl)piperidin-1-yl)-2-oxoethoxy)ethyl)-4-methoxy-N,2,6-trimethylphenylsulfonamide]
8 | 100% | 104% | COc1cc(C)c(S(=O)(=O)N(C)CCOCC(=O)N2CCC(O)(c3cccc(F)c3)CC2)c(C)c1 [Example 141, N-(2-(2-(4-(3-fluorophenyl)-4-hydroxypiperidin-1-yl)-2-oxoethoxy)ethyl)-4-methoxy-N,2,6-trimethylphenylsulfonamide]
9 | 100% | 103% | COc1cc(C)c(S(=O)(=O)N2CCCCC2COCC(=O)N2CCC(O)(c3cccc(F)c3)CC2)c(C)c1 (stereo not shown) [Example 142, 1-(4-(3-fluorophenyl)-4-hydroxypiperidin-1-yl)-2-((1-(4-methoxy-2,6-dimethylphenylsulfonyl)piperidin-2-yl)methoxy)ethanone]
10 | 100% | 105% | COc1cc(C)c(S(=O)(=O)N(C)CCOCC(=O)N2CCC(O)(c3cccnc3)CC2)c(C)c1 [Example 143, N-(2-(2-(4-hydroxy-4-(pyridin-3-yl)piperidin-1-yl)-2-oxoethoxy)ethyl)-4-methoxy-N,2,6-trimethylphenylsulfonamide]
11 | 101% | 104% | COc1cc(C)c(S(=O)(=O)N2CCCCC2COCC(=O)N2CCC(O)(c3ccncc3)CC2)c(C)c1 (stereo not shown) [Example 144, 1-(4-hydroxy-4-(pyridin-4-yl)piperidin-1-yl)-2-((1-(4-methoxy-2,6-dimethylphenylsulfonyl)piperidin-2-yl)methoxy)ethanone]
12 | 92.8% | 70.7% | O=C(COCC1CCc2ccccc2N1S(=O)(=O)c1ccc(Cl)c(Cl)c1)N1CCC(O)(c2ccccn2)CC1 (stereo not shown) [Example 146, 2-((1-(3,4-dichlorophenylsulfonyl)-1,2,3,4-tetrahydroquinolin-2-yl)methoxy)-1-(4-hydroxy-4-(pyridin-2-yl)piperidin-1-yl)ethanone]
13 | 93.3% | 53.9% | O=C(COCC1CCc2ccccc2N1S(=O)(=O)c1ccc(Cl)c(Cl)c1)N1CCC(O)(c2ccncc2)CC1 (stereo not shown) [Example 147, 2-((1-(3,4-dichlorophenylsulfonyl)-1,2,3,4-tetrahydroquinolin-2-yl)methoxy)-1-(4-hydroxy-4-(pyridin-4-yl)piperidin-1-yl)ethanone]
14 | 99% | 100% | Cc1ccc2ccccc2c1S(=O)(=O)N(C)CCOCC(=O)N1CCC(O)(c2cccnc2)CC1 [Example 148, N-(2-(2-(4-hydroxy-4-(pyridin-3-yl)piperidin-1-yl)-2-oxoethoxy)ethyl)-N,2-dimethylnaphthalene-1-sulfonamide]
15 | 100% | 99.1% | Cc1cc(S(=O)(=O)N(C)CCOCC(=O)N2CCC(O)(c3cccnc3)CC2)c(C)cc1Cl [Example 149, 4-chloro-N-(2-(2-(4-hydroxy-4-(pyridin-3-yl)piperidin-1-yl)-2-oxoethoxy)ethyl)-N,2,5-trimethylphenylsulfonamide]
16 | 93.7% | 95.3% | Cc1cc(S(=O)(=O)N(C)CCOCC(=O)N2CCC(O)(c3ccc(Cl)cc3)CC2)c(C)cc1Cl [Example 150, 4-chloro-N-(2-(2-(4-(4-chlorophenyl)-4-hydroxypiperidin-1-yl)-2-oxoethoxy)ethyl)-N,2,5-trimethylphenylsulfonamide]
17 | 86.9% | 97.8% | Cc1cc(S(=O)(=O)N(C)CCOCC(=O)N2CCC(O)(c3ccc(Br)cc3)CC2)c(C)cc1Cl [Example 151, N-(2-(2-(4-(4-bromophenyl)-4-hydroxypiperidin-1-yl)-2-oxoethoxy)ethyl)-4-chloro-N,2,5-trimethylphenylsulfonamide]
18 | 77.2% | 81.6% | Cc1cc(S(=O)(=O)N(C)CCOCC(=O)N2CCC(O)(c3ccccc3)CC2)c(C)cc1Cl [Example 152, 4-chloro-N-(2-(2-(4-hydroxy-4-phenylpiperidin-1-yl)-2-oxoethoxy)ethyl)-N,2,5-trimethylphenylsulfonamide]
19 | 69.1% | 71.8% | Cc1cc(S(=O)(=O)N(C)CCOCC(=O)N2CCC(O)(Cc3ccccc3)CC2)c(C)cc1Cl [Example 153, N-(2-(2-(4-benzyl-4-hydroxypiperidin-1-yl)-2-oxoethoxy)ethyl)-4-chloro-N,2,5-trimethylphenylsulfonamide]
20 | 96.4% | 98.8% | Cc1cc(S(=O)(=O)N(C)CCOCC(=O)N2CCC(O)(c3cccc(C(F)(F)F)c3)CC2)c(C)cc1Cl [Example 154, 4-chloro-N-(2-(2-(4-hydroxy-4-(3-(trifluoromethyl)phenyl)piperidin-1-yl)-2-oxoethoxy)ethyl)-N,2,5-trimethylphenylsulfonamide]
